From patent US6737383B1, “Herbicidal oxadiazolidines” (priority 1999, dated 2004)

Columns and labels:
rice = assay: Test B flood test rice; assay type: in vivo, Oryza sativa
Outline: (§1)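 Flood test on plants grown to the 2-leaf stage; treated plants kept in greenhouse twelve to sixteen days, then visually rated against controls on a 0 (no effect) to 10 (complete control) scale.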

corn = assay: Test B pre/postemergence corn; assay type: in vivo, Zea mays
Outline: (§2)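 Herbicidal effect was estimated by eye on a ten-point control scale after plants spent twelve to sixteen days in a greenhouse following soil or foliar treatment. Foliar sprays targeted plants at one to four leaves; all doses were formulated in a non-phytotoxic solvent with surfactant.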

purple nutsedge = assay: Test B pre/postemergence purple nutsedge; assay type: in vivo, Cyperus rotundus; conditions: for Plant response rating, Nutsedge: scale of 0 to 10 where 0 is no effect and 10 is complete control
Outline: as §2

surinam grass = assay: Test B pre/postemergence surinam grass; assay type: in vivo, Brachiaria decumbens
Outline: as §2

crabgrass = assay: Test B pre/postemergence crabgrass; assay type: in vivo, Digitaria sanguinalis
Outline: as §2

wild oat = assay: Test B pre/postemergence wild oat; assay type: in vivo, Avena fatua; conditions: for Plant response rating, Wild oats: scale of 0 to 10 where 0 is no effect and 10 is complete control
Outline: as §2

smallflower flatsedge = assay: Test B flood test smallflower flatsedge; assay type: in vivo, Cyperus difformis
Outline: as §1

blackgrass = assay: Test B pre/postemergence blackgrass; assay type: in vivo, Alopecurus myosuroides
Outline: as §2

giant foxtail = assay: Test B pre/postemergence giant foxtail; assay type: in vivo, Setaria faberii
Outline: as §2

morningglory = assay: Test B pre/postemergence morningglory; assay type: in vivo, Ipomoea hederacea; conditions: for Plant response rating, Morningglory: scale of 0 to 10 where 0 is no effect and 10 is complete control
Outline: as §2

bedstraw = assay: Test B pre/postemergence bedstraw; assay type: in vivo, Galium aparine; conditions: Postemergence
Outline: as §2

wheat = assay: Test B pre/postemergence wheat; assay type: in vivo, Triticum aestivum; conditions: for Plant response rating, Wheat: scale of 0 to 10 where 0 is no effect and 10 is complete control
Outline: as §2

sugar beet = assay: Test B pre/postemergence sugar beet; assay type: in vivo, Beta vulgaris; conditions: for Plant response rating, Sugarbeets: scale of 0 to 10 where 0 is no effect and 10 is complete control
Outline: as §2

rape = assay: Test B pre/postemergence rape; assay type: in vivo, Brassica napus; conditions: for Plant response rating, Rape: scale of 0 to 10 where 0 is no effect and 10 is complete control
Outline: as §2

bamyardgrass = assay: Test B flood test barnyardgrass; assay type: in vivo, Echinochloa crus-galli
Outline: as §1

pigweed = assay: Test B pre/postemergence pigweed; assay type: in vivo, Amaranthus retroflexus; conditions: for Plant response rating, Redroot pigweed: scale of 0 to 10 where 0 is no effect and 10 is complete control
Outline: as §2

[1] = Rate 62 g/ha, flood test species, Pre-emergence, visual evaluation after twelve to sixteen days
[2] = Rate 125 g/ha, under heading Pre-emergence, flood test species, visual evaluation after twelve to sixteen days
[3] = Rate 250 g/ha, Pre-emergence (flood test species), scale 0 to 10, 0 is no effect, 10 is complete control
[4] = Rate 500 g/ha, Pre-emergence, flood test species, scale 0 to 10 (0 no effect, 10 complete control)
[5] = Postemergence, Rate 250 g/ha, scale 0 to 10
[6] = Postemergence, Rate 500 g/ha, scale of 0 to 10 where 0 is no effect and 10 is complete control
[7] = Preemergence, Rate 62 g/ha, scale of 0 to 10 where 0 is no effect and 10 is complete control
[8] = Preemergence, Rate 125 g/ha, scale of 0 to 10 where 0 is no effect and 10 is complete control
[9] = Preemergence, Rate 250 g/ha, scale 0 to 10, 0 is no effect, 10 is complete control
[10] = Preemergence, Rate 500 g/ha, scale 0 to 10, 0 is no effect, 10 is complete control
[11] = Rate 62 g/ha, Postemergence, scale 0 to 10 (0 no effect, 10 complete control)
[12] = Rate 125 g/ha, Postemergence, scale 0 to 10, 0 is no effect, 10 is complete control

## CC(C)N(C(=O)n1oc(=O)n(CO)c1=O)c1ccc(F)cc1 [Compound 470]
rice; [1]
  Plant response rating, Rice (0 to 10 scale, 0 is no effect, 10 is complete control): 0
rice; [2]
  Rice plant response rating (0 to 10 scale, 0 is no effect, 10 is complete control): 0
rice; [3]
  Rice plant response rating: 0
rice; [4]
  Rice plant response rating: 0
corn; [5]
  Corn plant response rating: 0
corn; [6]
  Corn plant response rating: 0
corn; [7]
  Plant response rating, Corn: 0
corn; [8]
  Plant response rating, Corn: 0
corn; [9]
  Corn plant response rating: 0
corn; [10]
  Corn plant response rating: 0
corn; [11]
  Corn plant response rating: 0
corn; [12]
  Corn plant response rating: 0
Purple nutsedge; [5]
  Nutsedge plant response rating: 0
Purple nutsedge; Preemergence, Rate 62 g/ha
  Plant response rating, Nutsedge: 0
Purple nutsedge; Preemergence, Rate 125 g/ha
  Plant response rating, Nutsedge: 0
Purple nutsedge; [9]
  Nutsedge plant response rating: 0
Purple nutsedge; [10]
  Nutsedge plant response rating: 0
Purple nutsedge; [11]
  Nutsedge plant response rating: 0
Purple nutsedge; [12]
  Nutsedge plant response rating: 0
Surinam grass; Postemergence, Rate 250 g/ha, scale 0 to 10, 0 no effect, 10 complete control
  B. signalgrass plant response rating: 0
Surinam grass; [6]
  B. signalgrass plant response rating: 0
Surinam grass; [7]
  Plant response rating, B. signalgrass: 0
Surinam grass; [8]
  Plant response rating, B. signalgrass: 0
Surinam grass; [9]
  B. signalgrass plant response rating: 4
Surinam grass; [10]
  B. signalgrass plant response rating: 6
Surinam grass; [11]
  B. signalgrass plant response rating: 0
Surinam grass; [12]
  B. signalgrass plant response rating: 0
crabgrass; [5]
  Crabgrass plant response rating: 0
crabgrass; [6]
  Crabgrass plant response rating: 0
crabgrass; [7]
  Plant response rating, Crabgrass: 1
crabgrass; [8]
  Plant response rating, Crabgrass: 7
crabgrass; [9]
  Crabgrass plant response rating: 8
crabgrass; [10]
  Crabgrass plant response rating: 9
crabgrass; [11]
  Crabgrass plant response rating: 0
crabgrass; [12]
  Crabgrass plant response rating: 0
Wild oat; [5]
  Wild oats plant response rating: 0
Wild oat; Preemergence, Rate 62 g/ha
  Plant response rating, Wild oats: 0
Wild oat; Preemergence, Rate 125 g/ha
  Plant response rating, Wild oats: 0
Wild oat; [9]
  Wild oats plant response rating: 0
Wild oat; [10]
  Wild oats plant response rating: 3
Wild oat; [11]
  Wild oats plant response rating: 0
Wild oat; [12]
  Wild oats plant response rating: 0
Smallflower flatsedge; [1]
  Plant response rating, S. Flatsedge (0 to 10 scale, 0 is no effect, 10 is complete control): 0
Smallflower flatsedge; [2]
  S. Flatsedge plant response rating (0 to 10 scale, 0 is no effect, 10 is complete control): 0
Smallflower flatsedge; [3]
  S. Flatsedge plant response rating: 0
Smallflower flatsedge; [4]
  S. Flatsedge plant response rating: 0
blackgrass; [5]
  Blackgrass plant response rating: 0
blackgrass; [6]
  Blackgrass plant response rating: 0
blackgrass; [7]
  Plant response rating, Blackgrass: 0
blackgrass; [8]
  Plant response rating, Blackgrass: 0
blackgrass; [9]
  Blackgrass plant response rating: 7
blackgrass; [11]
  Blackgrass plant response rating: 0
blackgrass; [12]
  Blackgrass plant response rating: 0
Giant foxtail; [5]
  Giant foxtail plant response rating: 0
Giant foxtail; [6]
  Giant foxtail plant response rating: 0
Giant foxtail; [7]
  Plant response rating, Giant foxtail: 0
Giant foxtail; [8]
  Plant response rating, Giant foxtail: 0
Giant foxtail; [9]
  Giant foxtail plant response rating: 0
Giant foxtail; [10]
  Giant foxtail plant response rating: 3
Giant foxtail; [11]
  Giant foxtail plant response rating: 0
Giant foxtail; [12]
  Giant foxtail plant response rating: 0
morningglory; [5]
  Morningglory plant response rating: 0
morningglory; Preemergence, Rate 62 g/ha
  Plant response rating, Morningglory: 0
morningglory; Preemergence, Rate 125 g/ha
  Plant response rating, Morningglory: 0
morningglory; [9]
  Morningglory plant response rating: 0
morningglory; [10]
  Morningglory plant response rating: 0
morningglory; [11]
  Morningglory plant response rating: 0
morningglory; [12]
  Morningglory plant response rating: 0
bedstraw; Rate 62 g/ha, scale 0 to 10 (0 no effect, 10 complete control)
  Bedstraw plant response rating: 0
bedstraw; Rate 125 g/ha, scale 0 to 10, 0 is no effect, 10 is complete control
  Bedstraw plant response rating: 0
wheat; [5]
  Wheat plant response rating: 0
wheat; Preemergence, Rate 62 g/ha
  Plant response rating, Wheat: 0
wheat; Preemergence, Rate 125 g/ha
  Plant response rating, Wheat: 0
wheat; [9]
  Wheat plant response rating: 0
wheat; [10]
  Wheat plant response rating: 0
wheat; [11]
  Wheat plant response rating: 0
wheat; [12]
  Wheat plant response rating: 0
Sugar beet; [5]
  Sugarbeets plant response rating: 0
Sugar beet; Preemergence, Rate 62 g/ha
  Plant response rating, Sugarbeets: 0
Sugar beet; Preemergence, Rate 125 g/ha
  Plant response rating, Sugarbeets: 0
Sugar beet; [9]
  Sugarbeets plant response rating: 0
Sugar beet; [10]
  Sugarbeets plant response rating: 0
Sugar beet; [11]
  Sugarbeets plant response rating: 0
Sugar beet; [12]
  Sugarbeets plant response rating: 0
rape; [5]
  Rape plant response rating: 0
rape; Preemergence, Rate 62 g/ha
  Plant response rating, Rape: 0
rape; Preemergence, Rate 125 g/ha
  Plant response rating, Rape: 0
rape; [9]
  Rape plant response rating: 0
rape; [10]
  Rape plant response rating: 0
rape; [11]
  Rape plant response rating: 0
rape; [12]
  Rape plant response rating: 0
bamyardgrass; [1]
  Plant response rating, Barnyardgrass (0 to 10 scale, 0 is no effect, 10 is complete control): 0
bamyardgrass; [2]
  Barnyardgrass plant response rating (0 to 10 scale, 0 is no effect, 10 is complete control): 0
bamyardgrass; [3]
  Barnyardgrass plant response rating: 0
bamyardgrass; [4]
  Barnyardgrass plant response rating: 0
pigweed; [5]
  Redroot pigweed plant response rating: 0
pigweed; Preemergence, Rate 62 g/ha
  Plant response rating, Redroot pigweed: 0
pigweed; Preemergence, Rate 125 g/ha
  Plant response rating, Redroot pigweed: 0
pigweed; [9]
  Redroot pigweed plant response rating: 0
pigweed; [10]
  Redroot pigweed plant response rating: 0
pigweed; [11]
  Redroot pigweed plant response rating: 0
pigweed; [12]
  Redroot pigweed plant response rating: 0
